Measured values published in ChEMBL document CHEMBL1153401, “Role of the hydrogen bonding heteroatom-Lys53 interaction between the p38alpha mitogen-activated protein (MAP) kinase and pyridinyl-substituted 5-membered heterocyclic ring inhibitors” (J Med Chem, 2009).

These compounds were tested against Mitogen-activated protein kinase 14 (Homo sapiens, UniProt Q16539) (assay: Inhibition of p38alpha MAP kinase).
Chain of Mitogen-activated protein kinase 14 (Q16539 whole entry): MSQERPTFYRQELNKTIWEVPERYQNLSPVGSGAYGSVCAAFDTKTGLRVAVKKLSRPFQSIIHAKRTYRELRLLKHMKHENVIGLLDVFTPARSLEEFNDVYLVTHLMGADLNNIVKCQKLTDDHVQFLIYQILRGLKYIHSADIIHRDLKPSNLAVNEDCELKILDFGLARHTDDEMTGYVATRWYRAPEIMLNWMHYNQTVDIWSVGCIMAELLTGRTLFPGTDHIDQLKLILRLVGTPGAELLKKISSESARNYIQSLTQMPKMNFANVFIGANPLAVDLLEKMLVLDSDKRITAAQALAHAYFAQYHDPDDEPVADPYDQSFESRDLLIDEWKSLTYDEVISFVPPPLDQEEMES

Row | IC50 | SMILES
1 | 79 nM | Fc1ccc(-c2nc[nH]c2-c2ccncc2)cc1
2 | 740 nM | Fc1ccc(-c2occc2-c2ccncc2)cc1
3 | 420 nM | Fc1ccc(-c2[nH]ccc2-c2ccncc2)cc1
4 | 4050 nM | Fc1ccc(C2=C(c3ccncc3)CCC2)cc1
